{"source": "patent US9220680B2", "about": "“Compositions and methods for localized drug delivery through mammary papillae” (South Dakota State University, priority 2012, dated 2015)", "key": {"[1]": {"test": "Biodistribution of 5FU in rats 30 minutes after intraductal and intravenous injection (Experiment 24)", "format": "in vivo, Sprague-Dawley rats", "conditions": "rat; for Drug per gram tissue of mammary papilla: 30 min, n=1", "description": "(§1) The hair on the skin of the rats was removed using a hair removing formulation. The treatment was given after 24 hours to make sure the skin is recovered if damaged or altered due to the hair removal treatment.\n(§2) Next day, the rats were placed under controlled Isoflurane anesthesia. Now 500 μl of Blood samples were collected from each animal before beginning the experiment, by retro-orbital technique, as a control. For intraductal injection the mammary papilla to be treated was gently wiped with an alcoholic cotton swab to remove the keratin plug. Now 50 μl of 5FU solution in saline (10 mg/ml) was injected into the duct of the mammary papilla under a stereo-microscope. After this the animal was removed from anesthesia and placed into the cage. In case of intravenous injection, similar to intraductal, 50 μl of 5FU solution in saline (10 mg/ml) was injected into the tail vein and the animal was placed into the cage for 30 minutes. At the end of 30 minutes 500 μl of blood sample was collected. After this the rats were euthanized. Now for intraductal injection the treated area of the rat was cleaned with water. The rat was opened from the abdominal skin. Treated mammary papilla and mammary gland existing underneath the treated mammary papilla was excised and collected. Lateral mammary papilla and mammary gland was collected along with distant mammary papilla and mammary gland, as controls. Followed by this other organs including heart, brain, liver, spleen, kidneys and lungs were collected. In case of intravenous treatment, blood was collected and mammary tissues (mammary papilla, mammary gland and surrounding breast skin) was collected along with other organs including heart, brain, liver, spleen, kidneys and lungs. All the tissues were weighed and then mechanically homogenized to extract the drug. The homogenates were mixed with hydrogen peroxide solution (30% v/v) and then radioactivity into the samples was measured by liquid scintillation counting. Similarly blood samples were centrifuged and the supernatants were analyzed by scintillation counting. Results may be seen in FIG. 50, Tables 30-31."}, "[2]": {"test": "Transmammary permeation across porcine mammary papilla with and without removal of the keratin plug (Experiments 7-10)", "format": "in vitro ADME", "conditions": "porcine mammary papilla", "from_the_text": "Keratin plug was removed from human and porcine mammary papilla using an alcoholic cotton swab. The swab was gently rubbed on the surface of the mammary papilla. The mammary papilla was observed under the microscope to confirm the removal of the plug from the surface and to confirm that epidermis of the mammary papilla was not damaged during this procedure.\nThe drug solutions were spiked with radioactive substances. […] Receptor medium was PBS with 7.4 pH.\n(§3) Mammary papillae tissues were thawed. Keratin plugs were removed from the mammary papilla tissues using swabs with ethanol. […] The drug solutions were spiked with radioactive substances. […] Receptor medium was PBS with 7.4 pH.\nas §3\nMammary papillae tissues were thawed. Keratin plugs were removed from the mammary papilla tissues using swabs with ethanol. […] The drug solutions were spike with radioactive substances. […] Receptor medium was PBS with 7.4 pH."}, "[3]": {"conditions": "cited from earlier work"}, "[4]": {"test": "Transmammary permeation across human mammary papilla with and without removal of the keratin plug (Experiments 12-18)", "format": "in vitro ADME", "conditions": "for lag time / cumulative amount permeated / Drug retention in tissue / Flux: value (SEM); for cumulative amount permeated: 48 hours; for Drug retention in tissue: end of 48 hours", "from_the_text": "Mammary papillae tissues were thawed. […] The drug solutions were spiked with radioactive substances. […] Receptor medium was PBS with 7.4 pH. […] Results may be seen in FIG. 37 and Table 13.\nMammary papillae tissues were thawed. […] The drug solutions were spiked with radioactive substances. […] Receptor medium was PBS with 7.4 pH. […] Results may be seen in FIG. 38 and Table 15.\nMammary papillae tissues were thawed. […] The drug solutions were spiked with radioactive substances. […] Receptor medium was PBS with 7.4 pH. […] Results may be seen in FIG. 39 and Table 17.\nMammary papillae tissues were thawed. […] The drug solutions were spiked with radioactive substances. […] Receptor medium was PBS with 7.4 pH. […] Results may be seen in FIG. 40.\nMammary papillae and skin tissues were thawed. […] The drug solutions were spiked with radioactive substances. […] Receptor medium was PBS with 7.4 pH. […] Results may be seen in FIG. 41 and Table 20.\nMammary papillae and skin tissues were thawed. […] The drug solutions were spiked with radioactive substances. […] Receptor medium was PBS with 7.4 pH. […] Results may be seen in FIG. 42 and Table 22.\nMammary papillae tissues were thawed. […] The drug solutions were spiked with radioactive substances. […] Receptor medium was PBS with 7.4 pH. […] Results may be seen in FIG. 43 and Table 24."}, "[5]": {"test": "Biodistribution of 5FU in rats 6 hours after intraductal and intravenous injection (Experiment 23)", "format": "in vivo, Sprague-Dawley rats", "conditions": "rat", "description": "as §1\nas §2, with “plug. Now 100 μl of” for “plug. Now 50 μl of”, “to intraductal, 100 μl of” for “to intraductal, 50 μl of”, “cage for 6 hours. At the” for “cage for 30 minutes. At the”, “end of 6 hours 500 μl” for “end of 30 minutes 500 μl”, “in FIG. 49, Table 28 and Table 29.” for “in FIG. 50, Tables 30-31.”"}, "[6]": {"conditions": "5FU 20 mg/ml, human mammary papilla with keratin plug removal"}, "[7]": {"conditions": "5FU 20 mg/ml, human mammary papilla without keratin plug removal"}}, "data": [{"compound": "O=c1[nH]cc(F)c(=O)[nH]1", "note": "[5FU, 5-fluorouracil]", "values": [{"measurement": "Drug per gram tissue, mammary gland", "setting": "[1]; ID (30 min)", "result": 0.018, "unit": "µmol/g"}, {"measurement": "Drug per gram tissue, surrounding skin", "setting": "[1]; ID (30 min)", "result": 0.03, "unit": "µmol/g"}, {"measurement": "Drug per gram tissue, mammary gland", "setting": "[1]; IV (30 min)", "result": 0.009, "unit": "µmol/g"}, {"measurement": "Drug per gram tissue, surrounding skin", "setting": "[1]; IV (30 min)", "result": 0, "unit": "µmol/g"}, {"measurement": "5FU in vital organs of the body", "setting": "[1]; intraductal and intravenous injection, 30 minutes", "result": "significant amount of 5FU in vital organs of the body including kidneys, liver and brain"}, {"measurement": "Drug per gram tissue of mammary papilla", "setting": "[1]; intraductal injection 50 μl of 10 mg/ml 5FU in saline", "result": 0.16, "unit": "µmol/g"}, {"measurement": "Drug per gram tissue of mammary papilla", "setting": "[1]; intravenous injection 50 μl of 10 mg/ml 5FU in saline", "result": 0, "unit": "µmol/g"}, {"measurement": "Transmammary flux", "setting": "[2]", "result": 10.79, "unit": "μg/sq·cm/h"}, {"measurement": "Change of permeation upon removal of the keratin plugs (in words)", "setting": "[2]; donor in 50:50 ethanol:water, 48 hours", "result": "increases slightly, though statistically not significant"}, {"measurement": "Log P", "setting": "[3]", "result": "−0.89"}, {"measurement": "lag time", "setting": "[4]; 5FU 20 mg/ml in 50:50 ethanol:water, human mammary papilla with keratin plug removal, n=3-4", "result": "8.76 (1.46) hours"}, {"measurement": "cumulative amount permeated", "setting": "[4]; [6]", "result": "5.06 (1.17) μmole"}, {"measurement": "Drug retention in tissue", "setting": "[4]; [6]", "result": "7.30 (2.81) umole/g of tissue"}, {"measurement": "Flux", "setting": "[4]; [6]", "result": "0.18 (0.05) μmole/cm^2/hour"}, {"measurement": "cumulative amount permeated", "setting": "[4]; [7]", "result": "0.71 (0.08) μmole"}, {"measurement": "Drug retention in tissue", "setting": "[4]; [7]", "result": "2.28 (0.04) umole/g of tissue"}, {"measurement": "Flux", "setting": "[4]; [7]", "result": "0.03 (0.00) μmole/cm^2/hour"}, {"measurement": "lag time", "setting": "[4]; [7]", "result": "17.96 (3.80) hours"}, {"measurement": "Permeation profile via human vs porcine mammary papillae", "setting": "[4]; after keratin plug removal, 48 hours (Experiment 15)", "result": "similar"}, {"measurement": "Increase in permeation across the tissues upon removal of the keratin plugs", "setting": "[4]; human mammary papilla", "result": "more than 7 fold"}, {"measurement": "5FU in vital organs of the body", "setting": "[5]; intraductal and intravenous injection", "result": "significant amount of 5FU in vital organs of the body including kidneys, liver and brain"}, {"measurement": "Drug per gram tissue, mammary gland", "setting": "[5]; intraductal injection", "result": 0, "unit": "µmol/g"}, {"measurement": "Drug per gram tissue, surrounding skin", "setting": "[5]; intraductal injection", "result": 0.23, "unit": "µmol/g"}, {"measurement": "Drug per gram tissue of mammary papilla", "setting": "[5]; intraductal injection 100 μl of 10 mg/ml 5FU in saline", "result": 1.36, "unit": "µmol/g"}, {"measurement": "Drug per gram tissue, mammary gland", "setting": "[5]; intravenous injection", "result": 0, "unit": "µmol/g"}, {"measurement": "Drug per gram tissue, surrounding skin", "setting": "[5]; intravenous injection", "result": 0, "unit": "µmol/g"}, {"measurement": "Drug per gram tissue of mammary papilla", "setting": "[5]; intravenous injection 100 μl of 10 mg/ml 5FU in saline", "result": 0, "unit": "µmol/g"}]}]}
